89 compounds from a melting point compilation (Tetko et al.; mined from patent text by program, amines drawn as free bases though some values may be those of a salt) can be followed below.

A value given as a limit tells only on which side of the number the result lay.

The term melting point denotes the temperature, or range, at which the solid turns liquid. In turn, `O=C1NC(=O)C(c2ccc(Cl)c(Cl)c2)N1` (centres undefined) registered a melting point of 223 to 225 °C.

`Cc1cc(C=O)ccc1C(N)=O` had a melting point of 119 to 121 °C.

`Cc1cc(C)c2c(c1C)OC(C)(CC#N)C2` (centres undefined): the melting point was 58 to 59 °C.

Turning to `COC(=O)c1ncc(-c2ccccc2)nc1N`, the melting point is 228 °C.

The compound `COC(=O)N1CCCCc2cc(C3=NNC(=O)SC3C)ccc21` (centres undefined) came in with a melting point of 182 °C.

`NC(=O)c1ncn2c(-c3cccc(Cl)c3)ccnc12`: the melting point fell in the range of 252 to 254 °C.

On to `CC(=O)NC[C@H]1CN(c2ccc(-c3nc(Cn4ccnc4)co3)c(F)c2)C(=O)O1`, for which the melting point is 198 to 200 °C.

`O=CCCCCCCCCCCC(=O)O` displayed a melting point of 53 to 54 °C.

`CCC1c2cccn2-c2cc(OC)c(F)cc2N1S(=O)(=O)c1ccc(OC)c(C)c1` (centres undefined): the melting point lay within 130 to 132 °C.

Consider `O=C(CN1CCC(Oc2ccccc2)CC1)Nc1ccc2c(c1)OCC(=O)N2`, for which the melting point is 206 to 208 °C.

`CSc1ccc(-c2nn(Cc3ccccc3)c(=O)cc2-c2ccccc2)cc1` had a melting point of 157 to 158 °C.

In turn, `CCOC(=O)C1(C(C)C)OC2(O)C3CCCN3C(=O)C(Cc3ccccc3)N2C1=O` (centres undefined) registered a melting point of 152 to 154 °C.

For `COc1ccc(C(=O)C2=C(O)C(=O)N(c3ccc(C)nn3)C2c2ccc(OC(F)(F)F)cc2)cn1` (centres undefined), the melting point is 250 to 251 °C.

On to `O=C(O)[C@@H]1C[C@H]2C[C@H](CCS(=O)(=O)O)CC[C@H]2CN1` (racemic), for which the melting point came to 265 °C.

`CC1Cc2cccc(S(N)(=O)=O)c2OS1(=O)=O` (centres undefined) displayed a melting point of 185 to 186 °C.

`COc1cc(OC)c(NC(=O)[C@H]2[C@H](c3ccc(S(N)(=O)=O)cc3)C2(C)C)cc1Cl` (relative stereo) yielded a melting point of 248 to 251 °C.

For `O=C(NC(c1ccc([N+](=O)[O-])cc1)P(=O)(Oc1ccccc1)Oc1ccccc1)N(c1ccccc1)c1ccccc1` (centres undefined), the melting point is 157 to 162 °C.

`CC(=O)NC1(c2ccc(C(C)Cl)cc2)CC1` (centres undefined) yielded a melting point of 104 to 107 °C.

On to `CCOC(=O)C=Cc1c[nH]c2cnc(-n3cncn3)cc12`, for which the melting point was in the range of 235 to 238 °C.

The compound `CC1NC(=O)NN=C1c1ccc(N)cc1` (centres undefined) displayed a melting point of 248 to 250 °C.

For `CC(C#N)c1ccc(O)c([N+](=O)[O-])c1` (centres undefined), the melting point lay within 78 to 81 °C.

`CC(=O)c1[nH]c(-c2ccc(O)cc2)nc1C` returned a melting point of 300 °C.

`CCCC(=O)c1cccc2cc[nH]c12` showed a melting point of 67.2 to 68.2 °C.

With `CCOc1cc(OCC(=O)N2CCN(C(=O)OC(C)(C)C)CC2)cc2c1C(=O)N(COC(=O)c1c(Cl)cccc1Cl)S2(=O)=O`, the melting point is 193 to 195 °C.

`O=C(C(c1ccccc1)n1cnc2[nH]ncc2c1=S)N1CCCCCC1` (centres undefined) had a melting point greater than 230 °C.

`CC1(C)OC(=S)N(c2cc(C#N)ccc2F)c2ccccc21` yielded a melting point of 250 to 251 °C.

`C=CCN(CC)c1ccc2[nH]c3cnc(C(=O)OCC)cc3c2c1` yielded a melting point of 190 to 192 °C.

`CC1Cc2cc(S(=O)(=O)n3cc(-c4ccccc4)[nH]c3=O)ccc2N1C(=O)c1ccc(NC(=O)CCl)cc1` (centres undefined): the melting point amounted to 246 °C.

For `c1cc(CCCn2ccnc2)cc(OCc2ccc3oc(-c4cccs4)nc3c2)c1`, the melting point lay within 86 to 87 °C.

With `Cc1ccc2[nH]c(-c3ccccc3O)cc2c1`, the melting point lay within 211 to 215 °C.

In turn, `C#CC[C@H](c1nc2cc(Cl)ccc2c(=O)n1Nc1ccccc1)N(CCCN)C(=O)c1ccc(C)cc1` displayed a melting point of 130 to 133 °C.

`COc1c(N2CC(C)[C@@](N)(CF)C2)c(F)cc2c(=O)c(C(=O)O)cn([C@@H]3C[C@@H]3F)c12` (some centres undefined) had a melting point of 167 to 169 °C.

Consider `Cn1cc2c(C=O)c(Br)ccc2n1`, for which the melting point was 137 to 140 °C.

In turn, `CC(=O)Nc1ccc(C(=O)NC(C)(C)C)cc1` returned a melting point of 119 to 121 °C.

Turning to `CCC(Cc1ccc(S(=O)(=O)c2ccc(S(N)(=O)=O)s2)cc1)N(C)C` (centres undefined), the melting point is 169 to 172 °C.

In turn, `CCCc1nc2c(N)nc3ccccc3c2n1CCCC(C)N(OC)C(C)=O` (centres undefined) displayed a melting point of 140 to 142 °C.

`Cc1cccc(C(Nc2ccccc2)P(=O)(Oc2ccccc2)Oc2ccccc2)n1` (centres undefined) showed a melting point of 110 to 112 °C.

As for `O=C(O)c1cc(Br)ccc1OCC(F)(F)F`, the melting point was in the range of 126 to 128 °C.

As for `CCCCCCCCOc1ccc(-c2ccc(OC(F)F)cc2)cc1`, the melting point came to 104 °C.

`CC(ON=C(C(=O)O)c1ccc(O)c(Cl)c1)C(=O)OC(C)(C)C` (centres undefined) returned a melting point of 148 to 151 °C.

As to `CNC(=O)c1nn(-c2ccccc2)c(O)c1N=Nc1ccc(S(=O)(=O)NCCCCCCBr)cc1`, the melting point fell in the range of 234 to 236 °C.

Compound `COC(=O)c1cscc1NC(=O)NCCN1CCN(c2ccccc2OC)CC1` showed a melting point of 195 to 199 °C.

Take `CCCCCCC1(C(=O)NCCC)c2ccccc2Oc2ccccc21`: the melting point was in the range of 76 to 77.5 °C.

Compound `Cc1ccc(C(C)C)c(-n2cc(-c3ccccc3)c(C)c2Cl)c1` displayed a melting point of 103 °C.

With `CCOc1cc2ncnc(N3CCN(C(=O)Nc4ccc([N+](=O)[O-])cc4)CC3)c2cc1OCC`, the melting point was 120 to 121 °C.

Consider `Cc1coc2c(C(=O)c3cccs3)cc(C(C)(C)C)c(O)c12`, for which the melting point came out at 145 °C.

Consider `C=CCOc1ccc(Cl)c2c(=O)c3ccccc3sc12`, for which the melting point lay in the range of 135 to 136 °C.

Turning to `CCn1ncnc1COc1nn2c(-c3c(F)cccc3F)nnc2cc1C(C)(C)C`, the melting point was found to be 182 °C.

The compound `Cn1cc(C=CC(=O)NCN2CCCC2)c([N+](=O)[O-])n1` registered a melting point of 180 to 183 °C.

`O=C(NCCCCCCNC(=O)Nc1cccnc1)Nc1cccnc1` yielded a melting point of 197 to 199 °C.

The compound `CS(=O)(=O)c1ccc(C=CCN2CCc3nc(N)sc3CC2)cc1` yielded a melting point of 157 to 161 °C.

`N#CC(C#N)=C1N(CCCNC2CCCCC2)CCN1CCN1CCCCC1` came in with a melting point of 78 to 80 °C.

In turn, `Cc1nnc2n1-c1ccccc1C(c1ccc(Cl)cc1)=NN2Cc1ccc(N)cc1` gave a melting point of 234 to 237 °C.

`Nc1cc(F)c(F)c(Cl)c1Cl`: the melting point was 94 to 97.5 °C.

On to `CCOC(=O)COc1ccc2c(C)c(CCN(CC)CC)c(=O)oc2c1Cl`, for which the melting point fell in the range of 147 to 148 °C.

Compound `O=C(O)c1cc2cc(OCCc3ccccc3)ccc2[nH]1` displayed a melting point of 184 to 187 °C.

Compound `COCN1C(C)=C(C(=O)O)C(c2cccc(Cl)c2Cl)C(C(=O)O)=C1C` yielded a melting point of 155 to 156 °C.

With `CCOC(=O)c1csc(NC(=O)c2ccccc2)n1`, the melting point lay in the range of 146 to 147 °C.

`CC1CC(=O)C=C(N)C1` (centres undefined) registered a melting point of 165 to 169 °C.

Regarding `C=CCc1c2c(cc3c(=O)cc(C(=O)OCC)oc13)CCCC2`, the melting point was 98 to 101 °C.

Compound `[N-]=[N+]=NCCOc1cc(Cl)cc([N+](=O)[O-])c1N` gave a melting point of 113 to 114 °C.

The compound `CCc1cccc(C)c1CNc1cc(OC)nc(NC)c1[N+](=O)[O-]` yielded a melting point of 147 to 149 °C.

With `COc1ccc(-n2nc(C#N)cc2-c2ccc(S(C)(=O)=O)cc2)cc1Cl`, the melting point lay within 201 to 203 °C.

Compound `CC(C)c1nc2c([nH]1)c(=O)[nH]c(=O)n2Cc1cccc(Cl)c1` returned a melting point of 319 to 321 °C.

`COC(=O)c1ccc(C)c(C2=NC(C)(C(C)C)C(=O)N2)c1Cl` (centres undefined): the melting point was 181 to 183 °C.

On to `CCOc1ccc(-c2ncc(C#N)cn2)cc1`, for which the melting point came out at 153 °C.

For `CC(=O)Nc1ccc(S(=O)(=O)c2cc(Br)nc(Br)c2)cc1`, the melting point was determined as 211 °C.

With `CC(C)N1CC(=O)N(C(C)C)CC1=O`, the melting point was in the range of 177 to 180 °C.

With `CCCCNc1nc2ccccc2c2c1ncn2C`, the melting point lay in the range of 98 to 100 °C.

With `FC(F)(F)c1ccc(-c2ccc(N3CCCN(c4ccc(-c5ccc(C(F)(F)F)cc5)cn4)CC3)nc2)cc1`, the melting point lay within 236 to 238 °C.

Turning to `CCCN(CCC)[C@H]1Cc2ccc(OCC)cc2[C@@H]1O`, the melting point lay in the range of 74 to 75 °C.

As for `COc1ccc(OC)c(C(=O)/C=C/c2ccc3c(c2)OCO3)c1`, the melting point was 101 °C.

With `O=C(O)c1c2n(c3cc(N4CCNCC4)c(F)cc3c1=O)C(c1ccccc1)S2` (centres undefined), the melting point is 200 to 205 °C.

In the case of `COc1cc(NC(C)=O)ccc1OCC(O)CN1CCN(c2ccccc2F)CC1` (centres undefined), the melting point was found to be 144 °C.

In turn, `CC1(C)CCC(C)(C)c2cc(C#Cc3ccc(C#N)cc3)ccc21` displayed a melting point of 157 °C.

The compound `OCC1CCC(N2CCC(=C3c4ccccc4Sc4ccc(C(F)(F)F)cc43)CC2)CC1` (centres undefined) yielded a melting point of 193 to 197 °C.

Consider `CCCCc1nc(Cl)c(CO)n1Cc1ccc(NC(=O)[C@H](CC#N)NC(=O)OCc2ccccc2)cc1`, for which the melting point lay in the range of 89 to 91 °C.

In turn, `COC(=O)CN(CC(F)(F)F)c1ccc(C#N)c(C(F)(F)F)c1` registered a melting point of 144 to 145 °C.

Turning to `COc1ccc(Cl)c(Oc2c(C=O)nc(N3CCOCC3)nc2NS(=O)(=O)c2ccc(C(C)(C)C)cc2)c1`, the melting point was in the range of 235 to 236 °C.

For the compound `CCCCCCCCCCCC=CC(O)C(COC1OC(CO)C(O)C(O)C1O)NC(=O)CCCCCCCCCCCCCCC` (centres undefined), the melting point was 207 to 209 °C.

The compound `CC(=O)Nc1c(C(=S)c2ccc(C)cc2)[nH]c2cc(Cl)ccc12` came in with a melting point of 187 to 188 °C.

`Cc1cc(C)c(Nc2nc(C)ncc2S(=O)(=O)c2ccc(N3CCOCC3)cc2)c(C)c1`: the melting point lay within 221 to 223 °C.

As for `CCCCCCCCCCCCCCC1(C(=O)OC)CO1` (centres undefined), the melting point fell in the range of 47 to 48 °C.

As to `CC(=O)OCC(C)(C)C(=O)O`, the melting point lay within 56 to 59 °C.

Consider `COc1ccn2cc(-c3ccc(OC)c(OC)c3)nc2c1`, for which the melting point was found to be 142 °C.

As for `CC1(C)Oc2ccc(C(F)(F)F)cc2[C@@H](NC(=O)Nc2ccccc2)[C@@H]1O` (relative stereo), the melting point is 174 to 175 °C.

`CC(=O)OCNC(=O)c1cc(C)c(C(c2cc(F)ccc2F)S(=O)(=O)c2ccc(F)cc2)cn1` (centres undefined) showed a melting point of 111 to 113 °C.

`CC1N(c2cc(CC(Cl)C(=O)O)c(Cl)cc2Cl)NC(=O)N1C(F)F` (centres undefined): the melting point lay within 138 to 141 °C.

Compound `Cc1nc(-c2cccs2)c2nc(-c3ccccc3)cc-2[nH]1` gave a melting point of 178 to 179 °C.
